# Data as given in patent US7745450B2, “Pyrazolo[4,3-d]pyrimidines, processes for their preparation and methods for therapy” (Institute of Experimental Botany, priority 2002, dated 2010).
# How the values were obtained:
# MMK1 protein kinase = MMK1 protein kinase (Vicia faba, UniProt A0AAV1B7B8); assay: MMK1 protein kinase activity; format: biochemical
# Description: Protein extraction and purification of pant CDK by binding to p13^suc1-beads or immunopurification with an antibody specific to the cdc2a-MS protein was carried out as described previously (Bögre et al. 1997, Plant Physiol. 113, 1997, 841-852). The MMK1 protein kinase was purified with a specific antibody from Vicia faba extracts as described by Bögre et al. 1997a, Plant Cell 9, 75-83). Protein kinase activity was measures as described above in Example 20. The quantification of radioactivity incorporated into histone H1 or myelin basic protein was undertaken using phosphoimager (FIG. 2).
# [1] = tested on: CEM (human lymphoblastoid leukemia); assay: In vitro cytotoxic activity, Calcein AM; format: cell-based; settings: Homo sapiens, 72 h, three days
# Description: We have been using the following cell lines: HELA (human cervical carcinoma), MCF7 (human breast adenocarcinoma), NIH 3T3 (mouse fibroblasts), HOS (human osteogenic sarcoma), HL 60 (human promyelocytic leukemia), G 361 (human malignant melanoma), K562 (human erythroleukemia), CEM (human lymphoblastoid leukemia). Tested drugs were added to the cell cultures in six different concentration and kept at 37° C. and 5% CO2 for three days. All cell lines were grown in DMEM medium (Gibco BRL) supplemented with 10% (v/v) fetal bovine serum and L-glutamine and maintained at 37° C. in a humidified atmosphere with 5% CO2. 10^4 cells were seeded into each well of 96 well plate, allowed to stabilize for at least 2 h and then tested compounds were added at various concentrations ranging from 200 to 0.2 μM in triplicates. Three days after drug addition Calcein AM solution (Molecular Probes) was added and let to enter the cells for 1 hour. Fluorescence of viable cells was quantified employing Fluoroskan Ascent (Microsystems).
# B16 = assay: In vitro cytotoxic activity, Calcein AM; format: cell-based; settings: Mus musculus, B16, 72 h, three days
# Sequence of MMK1 protein kinase (A0AAV1B7B8 1-394): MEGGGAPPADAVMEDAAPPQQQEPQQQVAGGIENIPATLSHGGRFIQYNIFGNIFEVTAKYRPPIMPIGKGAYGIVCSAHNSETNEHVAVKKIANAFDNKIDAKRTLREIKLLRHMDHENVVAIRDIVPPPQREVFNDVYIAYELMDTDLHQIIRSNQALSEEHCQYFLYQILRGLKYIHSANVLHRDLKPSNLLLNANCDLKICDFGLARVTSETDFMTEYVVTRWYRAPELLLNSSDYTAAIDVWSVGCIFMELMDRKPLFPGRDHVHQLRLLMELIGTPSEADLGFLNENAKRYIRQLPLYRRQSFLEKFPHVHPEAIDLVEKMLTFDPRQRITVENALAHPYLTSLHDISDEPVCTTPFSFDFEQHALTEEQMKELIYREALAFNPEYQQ
SMILES,IC50 (MMK1 protein kinase) [µM],GI50 [1] [µM],GI50 (B16) [µM]
CC[C@H](CO)Nc1nc(Nc2ccc(O)c(C(=O)O)c2)c2[nH]nc(C(C)C)c2n1,0.03,18.4,25.8
COc1cccc(CNc2nc(NCCO)nc3c(C)n[nH]c23)c1O,0.45,3.5,4.2
CC[C@H](CO)Nc1nc(NCc2cccc(O)c2)c2[nH]nc(C(C)C)c2n1,0.04,10.5,12.4
CC[C@H](CO)Nc1nc(NCc2cccc(OC(C)=O)c2)c2[nH]nc(C(C)C)c2n1,0.4,18.5,23.7
CC[C@H](CO)Nc1nc(NCc2ccccc2C(C)=O)c2[nH]nc(C(C)C)c2n1,0.015,11.9,16.3
Cc1n[nH]c2c(Nc3ccc(Cl)c(N)c3)nc(NCCO)nc12,0.24,5.7,6.4
CC[C@H](CO)Nc1nc(Nc2ccc(Cl)c(N)c2)c2[nH]nc(C(C)C)c2n1,0.013,4.7,7.5
Cc1n[nH]c2c(NCc3cccc(O)c3)nc(NCCO)nc12,0.84,9.4,10.2
Cc1n[nH]c2c(Nc3ccc(O)c(C(=O)O)c3)nc(NCCO)nc12,0.7,12.4,15.8
CC[C@H](CO)Nc1nc(NCc2cccc(C(C)=O)c2)c2[nH]nc(C(C)C)c2n1,0.04,11.5,19.1
Cc1cccc(CNc2nc(NCCO)nc3c(C)n[nH]c23)c1O,0.34,2.8,3.1
CC(C)c1n[nH]c2c(NC(CO)c3ccccc3)nc(NC(CO)C(C)C)nc12 (stereo not drawn),0.15,2.6,4.8
Cc1n[nH]c2c(N(C)Cc3ccc(O)c(O)c3)nc(NCCO)nc12,1.95,10.3,11.5
CC(=O)c1ccccc1CNc1nc(NCCO)nc2c(C)n[nH]c12,0.4,10.8,9.3
Cc1n[nH]c2c(Nc3ccc(Cl)c(C(=O)O)c3)nc(NCCO)nc12,0.3,6.5,7.2
CC(C)c1n[nH]c2c(Nc3cc(N)cc(Cl)c3)nc(N[C@@H](CO)C(C)C)nc12,0.015,9.5,14.5
Cc1n[nH]c2c(NCc3cc(O)c(Cl)cc3O)nc(NCCO)nc12,0.38,1.5,2.8
CC[C@H](CO)Nc1nc(NCc2cccc(C)c2O)c2[nH]nc(C(C)C)c2n1,0.014,1.9,2.1
CCC(CO)Nc1nc(NC(CO)c2ccccc2)c2[nH]nc(C(C)C)c2n1 (stereo not drawn),0.21,7.9,13.7
CC[C@H](CO)Nc1nc(NCc2c(N)cccc2Cl)c2[nH]nc(C(C)C)c2n1,0.0035,4.6,8.3
Cc1n[nH]c2c(Nc3cc(N)cc(Cl)c3)nc(NCCO)nc12,0.3,13.4,14.5
CC[C@H](CO)Nc1nc(NCc2cc(O)c(Cl)cc2O)c2[nH]nc(C(C)C)c2n1,0.015,2.5,4.8
Cc1n[nH]c2c(Nc3ccccc3)nc(NCCO)nc12 [2-hydroxyethylamino / anilino / methyl],2.5,10.2,12.4
CC[C@H](CO)Nc1nc(NCc2ccc(Cl)c(N)c2N)c2[nH]nc(C(C)C)c2n1,0.4,4.6,9.9
CC[C@H](CO)Nc1nc(NCc2ccc(Cl)c(O)c2O)c2[nH]nc(C(C)C)c2n1,0.011,3.1,5.6
COc1cc(O)c(CNc2nc(NCCO)nc3c(C)n[nH]c23)c(O)c1,0.09,2.8,4.7
CC(=O)c1cccc(CNc2nc(N[C@@H](CO)C(C)C)nc3c(C(C)C)n[nH]c23)c1,0.005,8.6,9.4
Cc1n[nH]c2c(Nc3ccc(N)c(Cl)c3)nc(NCCO)nc12,0.25,16.2,17.5
Cc1n[nH]c2c(NCc3ccc(Cl)c(N)c3N)nc(NCCO)nc12,2.8,5.6,6.5
CC[C@H](CO)Nc1nc(NCc2cccc(OC)c2O)c2[nH]nc(C(C)C)c2n1,0.012,3.1,6.2

# More lines, in order of falling IC50 (MMK1 protein kinase), values ahead:
IC50 (MMK1 protein kinase) [µM],SMILES,GI50 [1] [µM],GI50 (B16) [µM]
3.3,CC(=O)Oc1ccccc1CNc1nc(NCCO)nc2c(C)n[nH]c12,14.5,16.2
1.8,Cc1n[nH]c2c(NCc3ccc(Cl)c(N)c3)nc(NCCO)nc12,12.4,13.5
1.1,CC[C@H](CO)Nc1nc(NCc2ccc(O)c(O)c2)c2[nH]nc(C(C)C)c2n1,9.2,15.7
0.9,Cc1n[nH]c2c(Nc3cccc(Cl)c3)nc(NCCO)nc12,8.9,9.8
0.41,Cc1n[nH]c2c(NCc3ccccc3O)nc(NCCO)nc12,5.6,8.2
0.31,CC(C)c1n[nH]c2c(NCc3ccc(O)c(O)c3)nc(N[C@@H](CO)C(C)C)nc12,4.2,5.8
0.2,CC[C@H](CO)Nc1nc(NCc2ccccc2OC(C)=O)c2[nH]nc(C(C)C)c2n1,13.8,19.3
0.18,Cc1n[nH]c2c(Nc3ccc(Cl)cc3)nc(NCCO)nc12,7.6,8.4
0.16,Cc1n[nH]c2c(Nc3ccc(C(=O)O)c(Cl)c3)nc(NCCO)nc12,8.9,9.2
0.16,COc1cc(O)c(CNc2nc(NCCO)nc3c(C)n[nH]c23)cc1O,4.2,3.7
0.11,CC(C)c1n[nH]c2c(N(C)Cc3ccc(O)c(O)c3)nc(N[C@@H](CO)C(C)C)nc12,3.5,4.8
0.11,CC[C@H](CO)Nc1nc(Nc2ccccc2)c2[nH]nc(C(C)C)c2n1,13.2,18.4
0.05,CC(=O)c1ccccc1CNc1nc(N[C@@H](CO)C(C)C)nc2c(C(C)C)n[nH]c12,14.5,18.2
0.04,CC(C)c1n[nH]c2c(NCc3ccc(Cl)c(N)c3N)nc(N[C@@H](CO)C(C)C)nc12,8.2,12.4
0.015,COc1cccc(CNc2nc(N[C@@H](CO)C(C)C)nc3c(C(C)C)n[nH]c23)c1O,9.7,9.1
0.012,CC[C@H](CO)Nc1nc(NCc2ccccc2O)c2[nH]nc(C(C)C)c2n1,7.8,9.3
0.012,CC[C@H](CO)Nc1nc(NCc2cccc(Cl)c2O)c2[nH]nc(C(C)C)c2n1,1.2,2.4
0.005,CC[C@H](CO)Nc1nc(NCc2ccc(OC)c(O)c2O)c2[nH]nc(C(C)C)c2n1,4.7,6.2
